Source: US20260265694A1, “USE OF A VITISIN COMPOUND FOR THE PRODUCTION OF HEMATOPOIETIC CELLS” (ETABLISSEMENT FRANCAIS DU SANG, priority 2022, published 2026)

Tests used:
[1] = system: MEP isolated from peripheral blood CD34+ cells; assay: ERYTHRO 1 PROTOCOL on sorted MEP cells; assay type: cell-based, human; settings: MEPs, 10 μM
Protocol: (§1) b. Isolation of CMP and MEP Progenitors The CD34^+ cells previously isolated via an immunomagnetic technique were marked with anti-CD34-BV421 (1:100 000), anti-CD45RA-BB517 (1:100 000), anti-CD123-Alexa647 (1.5:100 000) antibodies (BD Pharmingen) and a cocktail of anti-LIN-PE antibodies (2:100 000) for 15 minutes. The LIN cocktail antibodies are directed against markers specific to mature cells (CD2, CD3, CD4, CD7, CD8, CD10, CD11b, CD14, CD19, CD20, CD56, CD235a). This LIN cocktail thus allows enrichment in “LIN^neg” immature cells by depletion of mature cells. After incubation with these antibodies, the cells are rinsed with a solution of PBS^+ (PBS+2% Fetal Calf Serum (FCS)) and centrifuged (430×g, 10 min. 4° C.). After resuspension of the cells in PBS^+, CMPs with the phenotype CD34^+LIN^negCD123^+CD45RA^neg and MEPs with the phenotype CD34^+LIN^negCD123^negCD45RA^neg are sorted and harvested using an ARIA cell sorter (Manz et al., 2002). c. Isolation of BFU-E and CFU-E Progenitors Placental blood CD34^+ cells, previously isolated by immunomagnetic sorting, are marked with antibodies specific to surface antigens allowing them to target and discriminate BFU-E primitive erythrocyte progenitors, namely anti-CD34, anti-GPA, anti CD123 and anti-CD36 antibodies. Primitive erythrocyte progenitors (BFU-Es) are defined by the following phenotype: CD34^+CD123^negCD36^negGPA^neg. […]

[2] = system: CMP isolated from peripheral blood CD34+ cells; assay: ERYTHRO 1 PROTOCOL on sorted CMP cells; assay type: cell-based, human; settings: CMPs, 10 μM
Protocol: as §1

Oc1ccc(C2Oc3ccc(/C=C/c4cc(O)cc5c4[C@H](c4cc(O)cc(O)c4)[C@@H](c4ccc(O)cc4)O5)cc3C2c2cc(O)cc3c2C(c2cc(O)cc(O)c2)C(c2ccc(O)cc2)O3)cc1 (stereo in doubt) [vitisin B, 5-[(2R,2'S,3R,3'S)-5-[(1E)-2-[(2S,3S)-3-(3,5-Dihydroxyphenyl)-2,3-dihydro-6-hydroxy-2-(4-hydroxyphenyl)-4-benzofuranyl]ethenyl]-2,2′,3,3′-tetrahydro-6′-hydroxy-2,2′-bis(4-hydroxyphenyl)[3,4′-bibenzofuran]-3′-yl]-1,3-benzenediol]
erythrocyte differentiation (acquisition of the phenotype CD71+GPA+) ([1]; FIG. 4A): acceleration of erythrocyte differentiation | reduction relative to the control in CD71 membrane expression ([1]; as early as D7, FIG. 4B): up to 40% | erythrocyte differentiation (acquisition of the phenotype CD71+GPA+) ([2]; FIG. 4A): acceleration of erythrocyte differentiation | reduction relative to the control in CD71 membrane expression ([2]; as early as D7, FIG. 4B): up to 40%
